# In patent US20140045807A2, “THE USE OF 3-METHOXY-PREGNENOLONE FOR THE PREPARATION OF A DRUG FOR TREATING A TRAUMATIC BRAIN INJURY” (priority 2004, published 2014):
# Experiments:
# [1] = test system: Sprague Dawley rats in the FST; experiment: Forced swimming test (FST); assay type: in vivo, rat; details: 10 mg/kg subcutaneously, 24, 5, 1 h before testing
# From the text: (A) 3-methoxy-PREG (43B) decreased rat immobility in the FST showing antidepressant activity. Results are expressed as mean±SEM (n=6-14). One-way ANOVA: Treatment (F5, 46: 4.30 P<0.01). ***P<0.001, *P<0.05 vs. water and sesame oil (Fisher LSD test). […] Results are expressed as mean±SEM (n=6-14). One-way ANOVA: Treatment (F5, 46: 3.57 P<0.01). **P<0.01, *P<0.05 vs. water and sesame oil (Fisher LSD test). […] One-way ANOVA: Treatment (F5, 46: 3.57 P<0.01). **P<0.01, *P<0.05 vs. water and sesame oil (Fisher LSD test).
# Drugs were administered following the traditional dosing regimen used in the FST consisting of three injections: 24, 5, 1 h before testing.
# The FST is currently the most widely used animal model for assessing depression related behavior and antidepressant drug activity in rodents (Cryan et al., Neubiorev. 2005). Rats are placed in an inescapable cylinder of water where they develop an immobile posture believed to reflect a “depressive”-like state. The time rats spend immobile is decreased by drugs exerting antidepressant activity.
# Additional behaviors can be detected in the FST; namely, climbing and swimming. It has been shown that swimming behavior is sensitive to SSRIs such as fluoxetine whereas climbing is sensitive to norepinephrine re-uptake inhibitors (NRI) such as desipramine.
# [2] = molecular target: ERβ (Homo sapiens, UniProt Q92731); experiment: Radioligand binding assay, ERβ; details: MAP4343 10 μM; 0.5 nM [^3H] Estradiol; Human recombinant Sf9 cells
# Experimental: Binding affinity of 3-methoxy-PREG (MAP4343) for receptors of steroid hormones was evaluated using radioligand binding assays.
# [3] = test system: CHI traumatized animals; experiment: MRI of ventricular dilatation after Closed Head Injury (CHI); assay type: in vivo, rat; details: 20 mg/kg starting 24 hours post-trauma, day 28, compared to the vehicle
# Experimental: FIG. 17: Ventricular dilatation of Control animals injected with sesame oil (Control) and CHI traumatized animals injected with sesame oil (CHI-D0), or MAP4343 at 10 mg/kg (CHI-D1) or 20 mg/kg (CHI-D2) at day 28 post-trauma. (A) Representative MRI images.
# The model “Closed Head Injury” (CHI), also commonly known as “weight-drop”, “impact-acceleration” or Marmarou model, allows the induction of TBI on a closed skull and generates diffuse axonal injuries (Holtzer et al 2001). After anesthesia induction, the scalp was incised, a piece of metal (diameter […], height 3 mm)—designed to protect against skull fracture—was glued to the skull, between the lambda and bregma. The animal was then placed on a foam bed and a cylindrical metallic 230-g weight was dropped from 2 m through a metal tubing onto the disk. At the very moment of the impact, the head of the animal plunged briefly in the foam bed, which leads to an acceleration/deceleration of the brain inside the skull. […]
# MRI imaging of rats was performed at day 28 post-trauma. Based on MRI imaging, ventricular dilatation induced by CHI trauma was analyzed in CHI traumatized rats injected from 24 hours post-trauma with sesame oil (CHI-D0), or 3-methoxy-PREG (MAP4343) at 10 mg/kg (CHI-D1) or 20 mg/kg (CHI-D2).
# [4] = test system: GFAP; experiment: GFAP immunostaining after Lateral Fluid Percussion (LFP); assay type: in vivo, rat; details: first injection 2 hours post-trauma, day 35, no statistical analysis
# Experimental: FIG. 24: Quantification of GFAP immunostaining in LFP-injured animals. (A) GFAP immunostaining in injured cortex of LFP-injured animals injected with vehicle (sesame oil), or 3-methoxy-PREG (MAP4343) at 10 mg/kg or 20 mg/kg, with first injection at 2 hours post-trauma. (B) GFAP immunostaining in injured and uninjured thalamus of LFP-injured animals injected with vehicle (sesame oil), or 3-methoxy-PREG (MAP4343) at 10 mg/kg or 20 mg/kg, with first injection at 2 hours post-trauma. No statistical analysis has been performed.
# After anesthesia induction, the animal was placed on a stereotaxic frame. […]
# Trauma was induced by a fluid percussion device (Custom Design and Manufacturing, United Kingdom) (Besson et al., 2003): it is a cylindrical tank (60 cm long), with a piston on one side, over which a hammer exercises a constraint, and a male Luer-Lock on the other side. […] The amplitude of each shock wave was measured via a pressure transducer connected to the terminal portion of the device. The pressure signal was recorded on an oscilloscope. […]
# After mounting on Superfrost slides, frozen sections were dried for 90 minutes at room temperature and stored at −80° C. until use. […] Immunostaining was quantitatively assessed by optical density measurements directly from the section image (Image J). […]
# ERβ, sequence (Q92731 whole entry): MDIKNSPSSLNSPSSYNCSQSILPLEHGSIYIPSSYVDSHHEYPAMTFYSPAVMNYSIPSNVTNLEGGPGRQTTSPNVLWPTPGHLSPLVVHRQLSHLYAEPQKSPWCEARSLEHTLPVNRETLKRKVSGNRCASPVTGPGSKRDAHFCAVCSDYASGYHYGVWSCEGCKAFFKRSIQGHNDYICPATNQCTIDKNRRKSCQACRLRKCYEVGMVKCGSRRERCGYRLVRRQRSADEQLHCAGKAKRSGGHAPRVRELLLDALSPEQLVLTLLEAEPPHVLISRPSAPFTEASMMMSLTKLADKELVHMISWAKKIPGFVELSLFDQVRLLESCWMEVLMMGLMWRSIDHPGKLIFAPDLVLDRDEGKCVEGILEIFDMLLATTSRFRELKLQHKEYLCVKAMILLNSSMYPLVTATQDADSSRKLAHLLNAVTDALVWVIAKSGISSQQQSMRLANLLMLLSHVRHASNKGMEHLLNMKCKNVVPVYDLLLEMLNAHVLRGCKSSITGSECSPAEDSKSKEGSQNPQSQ
smiles,measurement,setting,value
"CO[C@H]1CC[C@@]2(C)C(=CC[C@H]3[C@@H]4CC[C@H](C(C)=O)[C@@]4(C)CC[C@@H]32)C1 [3-methoxy-PREG, 3β-methoxy-pregna-5-ene-20-one]",rat climbing behavior in the FST,[1],not changed
same,rat immobility in the FST,[1],significantly decreased
same,rat swimming in the FST,[1],significantly increased
same,% inhibition of specific binding,[2],< 25%
same,"ventricular dilatation (ventricles area, MRI)",[3],significantly decreases the ventricular dilatation
same,astrocytes GFAP immunoreactivity in the injured cortex,[4]; 10 mg/kg or 20 mg/kg,highly decreased
same,astrocytes immunoreactivity (GFAP) in the injured thalamus,[4]; especially Dose2 (20 mg/kg),strongly decreases astrocytes immunoreactivity
